The target in test [1] is estrogen receptor-alpha (ERα) (Homo sapiens (Human), UniProt P03372). Put plainly: Estrogen receptor-alpha (ERα) degradation assay in MCF7 cells (In-Cell Western / western blot). It is filed as cell-based. The conditions noted are these: % degraded, read-out: ER Degradation Dmax. The protocol: 2. Estrogen Receptor-Alpha (ERα) Degradation Assay in MCF-7 Cells Using Western Blot Method for Table 5
The exemplary novel ERα degraders were assessed for their activity in degrading ERα in MCF-7 cells via western blot. The assay was carried out in the presence of 10% FBS or high percentage of human or mouse serum. Protocols of the western blot assay are described below.
MCF7 cells were grown in DMEM/F12 with 10% FBS and seeded at 24,000 cells per well in 100 μl into 96-well clear tissue culture plates. The following day, the cells were treated with PROTACs in a […] concentration curve with 100 nM being the top concentration and serial dilutions to make the other concentrations (30 nM, 10 nM. 3 nM, 1 nM, and 0.3 nM). At all concentrations, 0.01% DMSO is the final concentration in the well. The following day, the plates are aspirated, washed with 50 μl of cold PBS. The cells are lysed with 50 μl/well 4° C. Cell Lysis Buffer (Catalog #9803; Cell Signaling Technology, Danvers, MA) (20 mM Tris-HCL (pH 7.5), 150 mM NaCl, 1 mM Na2EDTA, 1 mM EGTA, 1% Triton, 2.5 mM sodium pyrophosphate, 1 mM B-glycerophosphate, 1 mM sodium vanadate, 1 μg/ml leupeptin). Lysates were clarified at 16,000× g for 10 minutes, and 2 μg of protein was subjected to SDS-PAGE analysis and followed by immunoblotting according to standard protocols. The antibodies used were ERα (Cell Signaling, Technologies Catalog #8644), and Tubulin (Sigma Catalog #T9026; St. Louis, MO). Detection reagents were Clarity Western ECL substrate (Bio-Rad Catalog 4170-5060; Hercules, CA).
Alternatively, MCF7 cells were grown in DMEM/F12 with 10% FBS and seeded at 24,000 cells per well in 500 μl in 24-well clear tissue culture plates. The following day, the cells were treated with PROTACs in a 5-point concentration curve (100 nM, 33 nM, 11 nM, 3.7 nM, and 1.2 nM) in the presence of 0.01% DMSO. After 72 hours, the wells are aspirated and washed with 500 μl of PBS. The cells are lysed with 100 μl/well 4° C. Cell Lysis Buffer (Catalog #9803; Cell Signaling Technology, Danvers, MA) (20 mM Tris-HCL (pH 7.5), 150 mM NaCl, 1 mM Na2EDTA, 1 mM EGTA, 1% Triton, 2.5 mM sodium pyrophosphate, 1 mM B-glycerophosphate, 1 mM sodium vanadate, 1 ug/ml leupeptin). Lysates were clarified at 16,000× g for 10 minutes, and 2 μg of protein was subjected to SDS-PAGE analysis and followed by immunoblotting according to standard protocols. The antibodies used were ERα (Cell Signaling Technologies Catalog #8644), and Tubulin (Sigma Catalog #T9026; St. Louis, MO). Detection reagents were Clarity Western ECL substrate (Bio-Rad Catalog 4170-5060; Hercules, CA).
3. Estrogen receptor-alpha (ERα) degradation assay using In-Cell Western™ Assay for Table 5
Degradation of ERα by claimed compounds were determined in MCF7 cells using an In-Cell Western™ assay. Briefly, MCF7 cells were plated in 96-well plates (2000 cells per well in 100 μl media) and incubated at 37° C. under an atmosphere of 5% CO2 in a humidified incubator overnight. One-hundred (100) μl of media containing test compound (at 2× concentration) was added to the appropriate wells to provide 11 serially decreasing concentrations (top final concentration, 1 μM then 3-fold less for the next 10 concentrations); a vehicle control (DMSO) was also added for each compound. For each experiment, all compounds were assayed in duplicate plates. Cells were then incubated for 3 or 5 days in the above-mentioned environment. The assay was terminated by removal of media, a single wash with ice-cold PBS and the addition of […] paraformaldehyde (PFA: 4% in PBS). After 15 minutes in PFA at room temperature, the cells were permeabilized in Tris-phosphate-buffered saline with Tween (0.1%) (TBST) supplemented with Triton X-100 (0.5%) for 15 minutes. Cells were then blocked in BSA (TBST with BSA, 3%) for one hour. […] The cells were incubated overnight at 4° C. […]

The test system of test [2] is estrogen receptor. Put plainly: ERE luciferase assay in T47D-KBluc cells. It is filed as cell-based. Conditions: Homo sapiens, 24 hours, read-out: ER Target Engagement IC50. The protocol: 1. ERE Luciferase Assay for Compounds in Table 2
T47D-1(Bluc cells (ATCC® ECRL 2 65, T47D human breast cancer cells stably transfected with estrogen responsive element/promoter/luciferase reporter gene) were seeded into 96-well white opaque plates in IR: PM growth medium supplemented with 10% fetal bovine serum (FBS) and allowed to adhere overnight in a 37° C. humidified incubator. The following day, cells were treated with PROTACs in a 12-point concentration curve (top final concentration of 300 nM with subsequent concentrations being 3-fold less with […] being the lowest concentration in the assay). Each PROTAC was tested independently in two experiments on 96-well plates. After 24 hours, media was removed and lysis buffer was added to the wells. Following lysis, Bright-Glo™ Luciferase Assay Substrate (Promega, Madison WI) was added and the luciferase activity was measured using a Cytation 3 plate reader (BioTek™, Winooski, VT). Each compound was assayed in duplicate and the activity was calculated as […] using GraphPad Prism software (San Diego, CA).

Each structure is given as a SMILES string. Read-outs that look alike come from different tables or passages of the source. A value given as a limit tells only on which side of the number the result lay.

estrogen receptor-alpha (ERα), sequence (P03372 whole entry): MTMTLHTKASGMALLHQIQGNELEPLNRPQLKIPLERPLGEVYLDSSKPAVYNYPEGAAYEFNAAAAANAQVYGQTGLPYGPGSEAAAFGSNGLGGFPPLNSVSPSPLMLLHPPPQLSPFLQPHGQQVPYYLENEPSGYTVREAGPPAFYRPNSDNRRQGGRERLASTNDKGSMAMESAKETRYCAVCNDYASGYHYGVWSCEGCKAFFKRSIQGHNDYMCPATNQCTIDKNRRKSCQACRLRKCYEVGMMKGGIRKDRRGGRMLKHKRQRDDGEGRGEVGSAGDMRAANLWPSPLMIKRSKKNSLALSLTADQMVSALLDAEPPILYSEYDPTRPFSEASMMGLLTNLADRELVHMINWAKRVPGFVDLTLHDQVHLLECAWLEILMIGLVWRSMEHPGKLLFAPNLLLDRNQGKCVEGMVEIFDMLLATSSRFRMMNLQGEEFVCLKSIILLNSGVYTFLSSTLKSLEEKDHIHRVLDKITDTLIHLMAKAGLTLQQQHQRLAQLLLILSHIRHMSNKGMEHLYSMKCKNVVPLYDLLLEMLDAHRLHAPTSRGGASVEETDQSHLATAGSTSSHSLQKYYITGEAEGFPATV

In the case of `O=C1CCC(n2ncc(Oc3ccc(O[C@H]4CCN(CCOc5ccc([C@H]6c7ccc(O)cc7CC[C@H]6c6ccc(F)cc6)cc5)C4)nc3)cc2=O)C(=O)N1` (mixture of isomers) [PROTAC-93, rac-3-(4-((6-(((R)-1-(2-(4-((1R,2S)-2-(4-fluorophenyl)-6-hydroxy-1,2,3,4-tetrahydronaphthalen-1-yl)phenoxy)ethyl)pyrrolidin-3-yl)oxy)pyridin-3-yl)oxy)-6-oxopyridazin-1(6H)-yl)piperidine-2,6-dione], the greatest degradation seen (Dmax) – broadly, the largest share of the target that was removed – in test [1] (3 day incubation) is at most 50%. Besides, the half-maximal inhibitory concentration (IC50) (usually the midpoint of a concentration-inhibition curve) in test [2] is 10 to 100 nM.
The corresponding values for `O=C1CCC(n2ncc(Oc3ccc(O[C@H]4CCN(CCOc5ccc([C@@H]6c7ccc(O)cc7CC[C@@H]6c6ccc(F)cc6)cc5)C4)nc3)cc2=O)C(=O)N1` (mixture of isomers) [PROTAC-94, rac-3-(4-((6-(((R)-1-(2-(4-((1S,2R)-2-(4-fluorophenyl)-6-hydroxy-1,2,3,4-tetrahydronaphthalen-1-yl)phenoxy)ethyl)pyrrolidin-3-yl)oxy)pyridin-3-yl)oxy)-6-oxopyridazin-1(6H)-yl)piperidine-2,6-dione] are at most 50% and below 1 nM.
The corresponding values for `O=C1CCC(n2ncc(Oc3ccc(O[C@@H]4CCN(CCOc5ccc([C@H]6c7ccc(O)cc7CC[C@H]6c6ccc(F)cc6)cc5)C4)nc3)cc2=O)C(=O)N1` (mixture of isomers) [PROTAC-97, rac-3-(4-((6-(((R)-1-(2-(4-((1S,2R)-2-(4-fluorophenyl)-6-hydroxy-1,2,3,4-tetrahydronaphthalen-1-yl)phenoxy)ethyl)pyrrolidin-3-yl)oxy)pyridin-3-yl)oxy)-6-oxopyridazin-1(6H)-yl)piperidine-2,6-dione] are at most 50% and 10 to 100 nM.
With `CN(C(=O)c1ccc(N2CCN(CCCCCOc3ccc([C@@H]4c5ccc(O)cc5CC[C@@H]4c4ccccc4)cc3)CC2)cc1)C1CCC(=O)NC1=O` (mixture of isomers) [PROTAC-90, rac-N-(2,6-dioxopiperidin-3-yl)-4-(4-(5-(4-((1R,2S)-6-hydroxy-2-phenyl-1,2,3,4-tetrahydronaphthalen-1-yl)phenoxy)pentyl)piperazin-1-yl)-N-methylbenzamide], the greatest degradation seen (Dmax) in test [1] (5 day incubation) is above 75%. Further, the IC50 in test [2] was 1 to 10 nM.
The corresponding values for `O=C1CCC(NC(=O)c2ccc(N3CCN(CCCCCOc4ccc([C@@H]5c6ccc(O)cc6CC[C@@H]5c5ccccc5)cc4)CC3)cn2)C(=O)N1` (mixture of isomers) [PROTAC-91, rac-N-(2,6-dioxopiperidin-3-yl)-5-(4-(5-(4-((1R,2S)-6-hydroxy-2-phenyl-1,2,3,4-tetrahydronaphthalen-1-yl)phenoxy)pentyl)piperazin-1-yl)picolinamide] are above 75% and 1 to 10 nM.
For the compound `O=C1CCC(n2ncc(Oc3ccc(N4CCN(CCOc5ccc([C@H]6c7ccc(O)cc7CC[C@H]6c6ccc(F)cc6)cc5)CC4)nc3)cc2=O)C(=O)N1` (mixture of isomers) [PROTAC-95, rac-3-(4-((6-(4-(2-(4-((1R,2S)-2-(4-fluorophenyl)-6-hydroxy-1,2,3,4-tetrahydronaphthalen-1-yl)phenoxy)ethyl)piperazin-1-yl)pyridin-3-yl)oxy)-6-oxopyridazin-1(6H)-yl)piperidine-2,6-dione], the Dmax in test [1] (3 day incubation) was at most 50%. Besides, the IC50 in test [2] was at least 100 nM.
For the compound `O=C1CCC(n2ncc(Oc3ccc(N4CCN(CCOc5ccc([C@@H]6c7ccc(O)cc7CC[C@@H]6c6ccc(F)cc6)cc5)CC4)nc3)cc2=O)C(=O)N1` (mixture of isomers) [PROTAC-96, rac-3-(4-((6-(4-(2-(4-((1R,2S)-2-(4-fluoro-phenyl)-6-hydroxy-1,2,3,4-tetrahydro-naphthalen-1-yl)phenoxy)ethyl)piperazin-1-yl)pyridin-3-yl)oxy)-6-oxopyridazin-1(6H)-yl)piperidine-2,6-dione], the Dmax in test [1] (3 day incubation) was at most 50%. Further, in test [2], the IC50 is below 1 nM.
As to `O=C1CCC(n2ncc(Oc3ccc(CCCCOc4ccc([C@@H]5c6ccc(O)cc6CC[C@@H]5c5ccc(F)cc5)cc4)nc3)cc2=O)C(=O)N1` (mixture of isomers) [PROTAC-98, rac-3-(4-((6-(4-(4-((1R,2S)-2-(4-fluorophenyl)-6-hydroxy-1,2,3,4-tetrahydro-naphthalen-1-yl)phenoxy)butyl)pyridin-3-yl)oxy)-6-oxopyridazin-1(6H)-yl)piperidine-2,6-dione], in test [1] (5 day incubation), the maximal degradation (Dmax) is at most 50%. Besides, the concentration for half-maximal inhibition (IC50) in test [2] is 1 to 10 nM.
On the same counts, the results for `O=C1CCC(n2ncc(Oc3ccc(CCCCCOc4ccc([C@@H]5c6ccc(O)cc6CC[C@@H]5c5ccc(F)cc5)cc4)nc3)cc2=O)C(=O)N1` (mixture of isomers) [PROTAC-99, rac-3-(4-((6-(5-(4-((1R,2S)-2-(4-fluorophenyl)-6-hydroxy-1,2,3,4-tetrahydro-naphthalen-1-yl)phenoxy)pentyl)pyridin-3-yl)oxy)-6-oxopyridazin-1(6H)-yl)piperidine-2,6-dione] are at most 50% and 10 to 100 nM.
On the same counts, the results for `O=C1CCC(n2ncc(N3CCN(CCCCCOc4ccc([C@@H]5c6ccc(O)cc6CC[C@@H]5c5ccccc5)cc4)CC3)cc2=O)C(=O)N1` (mixture of isomers) [PROTAC-100, rac-3-(4-(4-(5-(4-((1R,2S)-6-hydroxy-2-phenyl-1,2,3,4-tetrahydronaphthalen-1-yl)phenoxy)pentyl)piperazin-1-yl)-6-oxopyridazin-1(6H)-yl)piperidine-2,6-dione] are 50 to 75% and 1 to 10 nM.
The corresponding values for `O=C1CCC(n2cnc(N3CCN(CCCCCOc4ccc([C@@H]5c6ccc(O)cc6CC[C@@H]5c5ccccc5)cc4)CC3)cc2=O)C(=O)N1` (mixture of isomers) [PROTAC-101, rac-3-(4-(4-(5-(4-((1R,2S)-6-hydroxy-2-phenyl-1,2,3,4-tetrahydronaphthalen-1-yl)phenoxy)pentyl)piperazin-1-yl)-6-oxopyrimidin-1(6H)-yl)piperidine-2,6-dione] are 50 to 75% and 1 to 10 nM.
As to `O=C1CCC(n2cc(-c3ccc(N4CCN(CCCOc5ccc([C@@H]6c7ccc(O)cc7CC[C@@H]6c6ccccc6)cc5)CC4)cc3)cn2)C(=O)N1` (mixture of isomers) [PROTAC-110, rac-3-(4-(4-(4-(3-(4-((1R,2S)-6-hydroxy-2-phenyl-1,2,3,4-tetrahydronaphthalen-1-yl)phenoxy)propyl)piperazin-1-yl)phenyl)-1H-pyrazol-1-yl) piperidine-2,6-dione], the Dmax in test [1] (5 day incubation) lay in the range of 50 to 75%. Besides, the 50% inhibitory concentration (IC50) in test [2] was below 1 nM.

Values taken from patent publication US12441708B2, “Cereblon ligands and bifunctional compounds comprising the same” (Arvinas Operations, Inc., priority 2017, dated 2025).
